Experiments:
Assay in all cases: Test E pre-/postemergence greenhouse test, plant response rating 0-100
Assay type in all cases: in vivo
[1] = test system: wild poinsettia (Euphorbia heterophylla); details: scale 0 to 100; for Plant response rating, Poinsettia, Wild: Postemergence; for Poinsettia, Wild plant response rating: Preemergence
Method in brief: (§1)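 Seeds sown in silt loam soil received preemergence treatment with compound in a non-phytotoxic solvent mixture containing surfactant. Postemergence, plants at 2–18 cm (1- to 4-leaf stage) in peat/vermiculite medium were sprayed with the same formulation. Visual injury versus untreated controls was rated 0–100 after 14 to 21 days in the greenhouse.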

[2] = test system: hairy beggarticks (Bidens pilosa); details: scale 0 to 100; for Plant response rating, Beggarticks: Postemergence; for Beggarticks plant response rating: Preemergence
Method in brief: as §1

[3] = test system: barnyardgrass (Echinochloa crus-galli); details: scale 0 to 100; for Plant response rating, Barnyardgrass: Postemergence; for Barnyardgrass plant response rating: Preemergence
Method in brief: as §1

[4] = test system: soybean (Glycine max); details: scale 0 to 100; for Plant response rating, Soybean: Postemergence; for Soybean plant response rating: Preemergence
Method in brief: as §1

[5] = test system: Italian ryegrass (Lolium multiflorum); details: scale 0 to 100; for Plant response rating, Ryegrass, Italian: Postemergence; for Ryegrass, Italian plant response rating: Preemergence
Method in brief: as §1

[6] = test system: sandbur (southern sandbur, Cenchrus echinatus); details: scale 0 to 100; for Plant response rating, Sandbur: Postemergence; for Sandbur plant response rating: Preemergence
Method in brief: as §1

[7] = test system: Brazilian crabgrass (Digitaria horizontalis); details: Postemergence, scale 0 to 100
Method in brief: as §1

[8] = test system: dayflower (Virginia (VA) dayflower, Commelina virginica); details: scale 0 to 100; for Plant response rating, Dayflower, VA: Postemergence; for Dayflower, VA plant response rating: Preemergence
Method in brief: as §1

[9] = test system: arrowleaf sida (Sida rhombifolia); details: for Plant response rating, Arrowleaf Sida: Postemergence; for Arrowleaf Sida plant response rating: Preemergence
Method in brief: as §1

[10] = test system: corn (Zea mays); details: scale 0 to 100; for Plant response rating, Corn: Postemergence; for Corn plant response rating: Preemergence
Method in brief: as §1

[11] = test system: waterhemp (common waterhemp, Amaranthus rudis); details: scale 0 to 100; for Plant response rating, Waterhemp: Postemergence; for Waterhemp plant response rating: Preemergence
Method in brief: as §1

[12] = test system: palmer pigweed (Amaranthus palmeri); details: scale 0 to 100; for Plant response rating, Pigweed, Palmer: Postemergence; for Pigweed, Palmer plant response rating: Preemergence
Method in brief: as §1

## O=C(c1ccccc1)c1cn(S(=O)(=O)CC(F)(F)F)nc1-c1cc(Cl)cc(Cl)c1 [Compound 3]
[1]; 31 g ai/ha
  Plant response rating, Poinsettia, Wild: 0
[1]; 62 g ai/ha
  Plant response rating, Poinsettia, Wild: 0
[1]; 125 g ai/ha
  Plant response rating, Poinsettia, Wild: 0
  Poinsettia, Wild plant response rating: 0
[1]; 250 g ai/ha
  Plant response rating, Poinsettia, Wild: 15
  Poinsettia, Wild plant response rating: 0
[1]; 500 g ai/ha
  Plant response rating, Poinsettia, Wild: 10
  Poinsettia, Wild plant response rating: 0
[2]; 31 g ai/ha
  Plant response rating, Beggarticks: 60
  Beggarticks plant response rating: 0
[2]; 62 g ai/ha
  Plant response rating, Beggarticks: 95
  Beggarticks plant response rating: 0
[2]; 125 g ai/ha
  Plant response rating, Beggarticks: 98
  Beggarticks plant response rating: 25
[2]; 250 g ai/ha
  Plant response rating, Beggarticks: 98
  Beggarticks plant response rating: 25
[2]; 500 g ai/ha
  Plant response rating, Beggarticks: 98
  Beggarticks plant response rating: 30
[3]; 31 g ai/ha
  Plant response rating, Barnyardgrass: 0
  Barnyardgrass plant response rating: 0
[3]; 62 g ai/ha
  Plant response rating, Barnyardgrass: 0
  Barnyardgrass plant response rating: 0
[3]; 125 g ai/ha
  Plant response rating, Barnyardgrass: 0
  Barnyardgrass plant response rating: 0
[3]; 250 g ai/ha
  Plant response rating, Barnyardgrass: 0
  Barnyardgrass plant response rating: 0
[3]; 500 g ai/ha
  Plant response rating, Barnyardgrass: 0
  Barnyardgrass plant response rating: 0
[4]; 31 g ai/ha
  Plant response rating, Soybean: 0
  Soybean plant response rating: 0
[4]; 62 g ai/ha
  Plant response rating, Soybean: 0
  Soybean plant response rating: 0
[4]; 125 g ai/ha
  Plant response rating, Soybean: 0
  Soybean plant response rating: 0
[4]; 250 g ai/ha
  Plant response rating, Soybean: 0
[4]; 500 g ai/ha
  Plant response rating, Soybean: 0
  Soybean plant response rating: 0
[5]; 31 g ai/ha
  Plant response rating, Ryegrass, Italian: 0
  Ryegrass, Italian plant response rating: 0
[5]; 62 g ai/ha
  Plant response rating, Ryegrass, Italian: 0
  Ryegrass, Italian plant response rating: 0
[5]; 125 g ai/ha
  Plant response rating, Ryegrass, Italian: 0
  Ryegrass, Italian plant response rating: 0
[5]; 250 g ai/ha
  Plant response rating, Ryegrass, Italian: 0
  Ryegrass, Italian plant response rating: 0
[5]; 500 g ai/ha
  Plant response rating, Ryegrass, Italian: 0
  Ryegrass, Italian plant response rating: 0
[6]; 31 g ai/ha
  Plant response rating, Sandbur: 0
  Sandbur plant response rating: 0
[6]; 62 g ai/ha
  Plant response rating, Sandbur: 0
  Sandbur plant response rating: 0
[6]; 125 g ai/ha
  Plant response rating, Sandbur: 0
  Sandbur plant response rating: 15
[6]; 250 g ai/ha
  Plant response rating, Sandbur: 0
  Sandbur plant response rating: 15
[6]; 500 g ai/ha
  Plant response rating, Sandbur: 0
  Sandbur plant response rating: 90
[7]; 31 g ai/ha
  Plant response rating, Crabgrass, Brazil: 0
[7]; 62 g ai/ha
  Plant response rating, Crabgrass, Brazil: 0
[7]; 125 g ai/ha
  Plant response rating, Crabgrass, Brazil: 0
[7]; 250 g ai/ha
  Plant response rating, Crabgrass, Brazil: 0
[7]; 500 g ai/ha
  Plant response rating, Crabgrass, Brazil: 0
[8]; 31 g ai/ha
  Plant response rating, Dayflower, VA: 0
[8]; 62 g ai/ha
  Plant response rating, Dayflower, VA: 0
[8]; 125 g ai/ha
  Plant response rating, Dayflower, VA: 0
  Dayflower, VA plant response rating: 0
[8]; 250 g ai/ha
  Plant response rating, Dayflower, VA: 0
  Dayflower, VA plant response rating: 0
[8]; 500 g ai/ha
  Plant response rating, Dayflower, VA: 0
  Dayflower, VA plant response rating: 0
[9]; 31 g ai/ha, scale 0 to 100
  Plant response rating, Arrowleaf Sida: 85
  Arrowleaf Sida plant response rating: 0
[9]; 62 g ai/ha, scale 0 to 100
  Plant response rating, Arrowleaf Sida: 95
  Arrowleaf Sida plant response rating: 40
[9]; 125 g ai/ha, scale 0 to 100
  Plant response rating, Arrowleaf Sida: 90
  Arrowleaf Sida plant response rating: 70
[9]; 250 g ai/ha, scale 0 to 100
  Plant response rating, Arrowleaf Sida: 95
  Arrowleaf Sida plant response rating: 90
[9]; 500 g ai/ha, scale 0 to 100 (0 no effect, 100 complete control)
  Plant response rating, Arrowleaf Sida: 98
[9]; 500 g ai/ha, scale 0 to 100
  Arrowleaf Sida plant response rating: 98
[10]; 31 g ai/ha
  Plant response rating, Corn: 0
  Corn plant response rating: 0
[10]; 62 g ai/ha
  Plant response rating, Corn: 0
  Corn plant response rating: 0
[10]; 125 g ai/ha
  Plant response rating, Corn: 0
  Corn plant response rating: 0
[10]; 250 g ai/ha
  Plant response rating, Corn: 0
  Corn plant response rating: 0
[10]; 500 g ai/ha
  Plant response rating, Corn: 0
  Corn plant response rating: 0
[11]; 31 g ai/ha
  Plant response rating, Waterhemp: 95
  Waterhemp plant response rating: 0
[11]; 62 g ai/ha
  Plant response rating, Waterhemp: 98
  Waterhemp plant response rating: 50
[11]; 125 g ai/ha
  Plant response rating, Waterhemp: 98
  Waterhemp plant response rating: 75
[11]; 250 g ai/ha
  Plant response rating, Waterhemp: 90
  Waterhemp plant response rating: 85
[11]; 500 g ai/ha
  Plant response rating, Waterhemp: 98
  Waterhemp plant response rating: 98
[12]; 31 g ai/ha
  Plant response rating, Pigweed, Palmer: 40
  Pigweed, Palmer plant response rating: 0
[12]; 62 g ai/ha
  Plant response rating, Pigweed, Palmer: 50
  Pigweed, Palmer plant response rating: 20
[12]; 125 g ai/ha
  Plant response rating, Pigweed, Palmer: 75
  Pigweed, Palmer plant response rating: 65
[12]; 250 g ai/ha
  Plant response rating, Pigweed, Palmer: 90
  Pigweed, Palmer plant response rating: 50
[12]; 500 g ai/ha
  Plant response rating, Pigweed, Palmer: 75
  Pigweed, Palmer plant response rating: 100

From patent publication US10167262B2, “Herbicidal substituted 3-arylpyrazoles” (FMC CORPORATION, priority 2014, dated 2019)
